Results as given in patent publication US20230398130A1, “METHODS AND COMPOSITIONS FOR DIFFERENTIATING STEM CELLS” (Massachusetts Institute of Technology, priority 2020, published 2023).

Tests used:
[1] = test system: ISC-enriched organoids; assay: Primary screen, 384-well 2.5-D organoid differentiation (ENR+CD, 6 days): carbachol-induced lysozyme secretion (LYZ.S); type: cell-based, murine; settings: primary screen; for Dose.FC.LYZ.S: FC vs plate median; for Z.LYZ.S: standard z score; for SSMD.LYZ.S: strictly standardized mean difference
Excerpt: (§1) High-throughput screening.

[2] = test system: ISC-enriched organoids; assay: Primary screen, 384-well 2.5-D organoid differentiation (ENR+CD, 6 days): basal lysozyme secretion (LYZ.NS); type: cell-based, murine; settings: primary screen; for Dose.FC.LYZ.NS: FC vs plate median; for Z.LYZ.NS: standard z score; for SSMD.LYZ.NS: strictly standardized mean difference
Excerpt: as §1

[3] = test system: ISC-enriched organoids; assay: Primary screen, 384-well 2.5-D organoid differentiation (ENR+CD, 6 days, Target Selective Inhibitor Library, vs whole-plate median): ATP (CellTiter-Glo 3D, CTG); settings: primary screen; for Dose.FC.CTG: FC vs plate median; for Z.CTG: standard z score; for SSMD.CTG: strictly standardized mean difference
[4] = 1st of the 4 dose lines of the treatment (dose not given)
[5] = 2nd of the 4 dose lines of the treatment (dose not given)
[6] = 3rd of the 4 dose lines of the treatment (dose not given)
[7] = 4th of the 4 dose lines of the treatment (dose not given)

Compound | Dose.FC.LYZ.S ([1]; Dose 0.08 uM) [log 2 fold change] | Dose.FC.LYZ.S ([1]; Dose 0.40 uM) [log 2 fold change] | Dose.FC.LYZ.S ([1]; Dose 2.00 uM) [log 2 fold change] | Dose.FC.LYZ.S ([1]; Dose 10.00 uM) [log 2 fold change] | Z.LYZ.S [1, 4] | Z.LYZ.S [1, 5] | Z.LYZ.S [1, 6] | Z.LYZ.S [1, 7] | SSMD.LYZ.S [1, 4] | SSMD.LYZ.S [1, 5] | SSMD.LYZ.S [1, 6] | SSMD.LYZ.S [1, 7] | Dose.FC.LYZ.NS ([2]; Dose 0.08 uM) [log 2 fold change] | Z.LYZ.NS ([2]; Dose 0.08 uM) | Dose.FC.LYZ.NS ([2]; Dose 0.40 uM) [log 2 fold change] | Z.LYZ.NS ([2]; Dose 0.40 uM) | Dose.FC.LYZ.NS ([2]; Dose 2.00 uM) [log 2 fold change] | Z.LYZ.NS ([2]; Dose 2.00 uM) | Dose.FC.LYZ.NS ([2]; Dose 10.00 uM) [log 2 fold change] | Z.LYZ.NS ([2]; Dose 10.00 uM) | further results
O=C(c1cn(Cc2cncn2Cc2ccc(Br)cc2)cc1-c1cccc2ccccc12)N1CCOCC1 [LB42708] | −0.089 | −0.144 | −0.238 | −0.233 | −0.576 | −0.934 | −1.539 | −1.509 | −0.519 | −0.630 | −0.965 | −0.864 | −0.116 | −1.010 | −0.140 | −1.221 | −0.176 | −1.531 | −0.182 | −1.587 | SSMD.LYZ.NS [2, 4]: −1.118; SSMD.LYZ.NS [2, 5]: −1.157; SSMD.LYZ.NS [2, 6]: −1.034; SSMD.LYZ.NS [2, 7]: −0.939; Dose.FC.CTG ([3]; Dose 0.08 uM): −0.072 log 2 fold change; Z.CTG ([3]; Dose 0.08 uM): −0.172; Dose.FC.CTG ([3]; Dose 0.40 uM): −0.342 log 2 fold change; Z.CTG ([3]; Dose 0.40 uM): −0.817; Dose.FC.CTG ([3]; Dose 2.00 uM): −0.116 log 2 fold change; Z.CTG ([3]; Dose 2.00 uM): −0.277; Dose.FC.CTG ([3]; Dose 10.00 uM): −0.706 log 2 fold change; Z.CTG ([3]; Dose 10.00 uM): −1.685; SSMD.CTG [3, 4]: −0.254; SSMD.CTG [3, 5]: −0.531; SSMD.CTG [3, 6]: −0.186; SSMD.CTG [3, 7]: −1.059
Cc1c(C(=O)Nc2ccc(N3C[C@@H](C)O[C@@H](C)C3)nc2)cccc1-c1ccc(OC(F)(F)F)cc1 [LDE225 (NVP-LDE225, Erismodegib)] | 0.095 | 0.074 | 0.002 | 0.006 | 0.613 | 0.481 | 0.013 | 0.038 | 0.704 | 0.415 | 0.013 | 0.025 | 0.085 | 0.739 | 0.101 | 0.881 | 0.011 | 0.094 | 0.049 | 0.426 | SSMD.LYZ.NS [2, 4]: 0.869; SSMD.LYZ.NS [2, 5]: 0.731; SSMD.LYZ.NS [2, 6]: 0.074; SSMD.LYZ.NS [2, 7]: 0.268; Dose.FC.CTG ([3]; Dose 0.08 uM): 0.107 log 2 fold change; Z.CTG ([3]; Dose 0.08 uM): 0.255; Dose.FC.CTG ([3]; Dose 0.40 uM): 0.067 log 2 fold change; Z.CTG ([3]; Dose 0.40 uM): 0.159; Dose.FC.CTG ([3]; Dose 2.00 uM): 0.229 log 2 fold change; Z.CTG ([3]; Dose 2.00 uM): 0.546; Dose.FC.CTG ([3]; Dose 10.00 uM): −0.001 log 2 fold change; Z.CTG ([3]; Dose 10.00 uM): −0.002; SSMD.CTG [3, 4]: 0.313; SSMD.CTG [3, 5]: 0.163; SSMD.CTG [3, 6]: 0.681; SSMD.CTG [3, 7]: −0.001
